Consider ten molecules from patent US20040097594A1 (priority 1998, published 2004).

pIC50, pKi: −log10 of the molar value.

One assay concerns the target HIV-1 protease (Human immunodeficiency virus type 1 group M subtype B, UniProt P04585). Put plainly: biochemical. The following applies: HIV-1 protease; upper line of each compound's entry; read-out: Ki (enzyme).
The test system of a further assay is HIV-1 (strain IIIB). Kind of assay: microbe, parasite or virus in culture. The following applies: Human immunodeficiency virus 1, 120 h; MT4 cells infected with HIV-1 strain IIIB, 5 days; lower line of each compound's entry; read-out: IC50 (MT-4 cells). Type of assay: cell-based.

A word on the pKi: it is the Ki on a negative log10 scale, so that one unit is a factor of ten. For orientation: pIC50 means −log10 of the IC50, conventionally taken in molar units.

For `O=C(N[C@@H](Cc1ccccc1)[C@H](O)CN(OC1CCCCC1)S(=O)(=O)c1cccc(O)c1)O[C@H]1CO[C@H]2OCC[C@H]21` [Example 159, (3R,3aS,6aR)hexahydrofuro[2,3-b]furan-3-yl(1S,2R)-1-benzyl-3-{(cyclohexyloxy)[(3-hydroxyphenyl)sulfonyl]amino}-2-hydroxypropylcarbamate], the pKi on HIV-1 protease is over 9.00. Further, the pIC50 in the assay on HIV-1 (strain IIIB) was at least 7.00.
Regarding `O=C(N[C@@H](Cc1ccccc1)[C@H](O)CN(OC1CCCCC1)S(=O)(=O)c1ccc(O)cc1)O[C@H]1CO[C@H]2OCC[C@H]21` [Example 160, (3R,3aS,6aR)hexahydrofuro[2,3-b]furan-3-yl(1S,2R)-1-benzyl-3-{(cyclohexyloxy)[(4-hydroxyphenyl)sulfonyl]amino}-2-hydroxypropylcarbamate], the pKi on HIV-1 protease is over 9.00. In addition, the pIC50 in the assay with HIV-1 (strain IIIB) is at least 7.00.
For `CCC(CC)ON(C[C@@H](O)[C@H](Cc1ccccc1)NC(=O)OC(C)(C)C)S(=O)(=O)c1ccc(OC)cc1` [Example 161, tert-butyl(1S,2R)-1-benzyl-3-{(1-ethylpropoxy)[(4-methoxyphenyl)sulfonyl]amino}-2-hydroxypropylcarbamate], the pKi on HIV-1 protease was 8.00 to 9.00. The negative-log IC50 (pIC50) in the assay on HIV-1 (strain IIIB) is under 6.00.
Taken in the same sequence, the figures for `CCC(CC)ON(C[C@@H](O)[C@H](Cc1ccccc1)NC(=O)O[C@H]1CO[C@H]2OCC[C@H]21)S(=O)(=O)c1ccc2c(c1)OCO2` [Example 162, (3R,3aS,6aR)hexahydrofuro[2,3-b]furan-3-yl(1S,2R)-3-[(1,3-benzodioxol-5-ylsulfonyl)(1-ethylpropoxy)amino]-1-benzyl-2-hydroxypropylcarbamate] were over 9.00 and at least 7.00.
Consider `CCC(CC)ON(C[C@@H](O)[C@H](Cc1ccccc1)NC(=O)O[C@H]1CO[C@H]2OCC[C@H]21)S(=O)(=O)c1ccc(N)cc1` [Example 163, (3R,3aS,6aR)hexahydrofuro[2,3-b]furan-3-yl(1S,2R)-3-[[(4-aminophenyl)sulfonyl](1-ethylpropoxy)amino]-1-benzyl-2-hydroxypropylcarbamate], for which the pKi at HIV-1 protease was over 9.00. The pIC50 with HIV-1 (strain IIIB) is at least 7.00.
In the case of `CCC(CC)ON(C[C@@H](O)[C@H](Cc1ccccc1)NC(=O)O[C@H]1CO[C@H]2OCC[C@H]21)S(=O)(=O)c1cccc(N)c1` [Example 164, (3R,3aS,6aR)hexahydrofuro[2,3-b]furan-3-yl(1S,2R)-3-[[(3-aminophenyl)sulfonyl](1-ethylpropoxy)amino]-1-benzyl-2-hydroxypropylcarbamate], the pKi on HIV-1 protease was over 9.00. Moreover, in the assay with HIV-1 (strain IIIB), the pIC50 was at least 7.00.
For `CCC(CC)ON(C[C@@H](O)[C@H](Cc1ccccc1)NC(=O)O[C@H]1CO[C@H]2OCC[C@H]21)S(=O)(=O)c1ccc(O)cc1` [Example 166, (3R,3aS,6aR)hexahydrofuro[2,3-b]furan-3-yl(1S,2R)-1-benzyl-3-{(1-ethylpropoxy)[(4-hydroxyphenyl)sulfonyl]amino}-2-hydroxypropylcarbamate], the pKi at HIV-1 protease was over 9.00. Further, the pIC50 in the assay with HIV-1 (strain IIIB) is at least 7.00.
Taken in the same sequence, the figures for `CNC(=O)CNC(=O)NCCNc1cccc(S(=O)(=O)N(CC(O)C(Cc2ccccc2)NC(=O)OC2COC3OCCC23)OC2CCCC2)c1` [Example 167, (3R,3aS,6aR)hexahydrofuro[2,3-b]furan-3-yl N-[(1S,2R)-1-benzyl-3-((cyclopentyloxy)[3-([(2-[methylamino]-2-oxoethylamino)carbonylamino]ethylamino)phenyl]sulfonylamino)-2-hydroxypropyl]carbamate and (3S,3aR,6aS)hexahydrofuro[2,3-b]furan-3-yl N-[(1S,2R)-1-benzyl-3-((cyclopentyloxy)[3-([2-[methylamino)-2-oxoethylamino)carbonylamino]ethylamino)phenyl]sulfonylamino)-2-hydroxypropyl]carbamate] were over 9.00 and 6.30 to 7.00.
As to `Nc1ccc(S(=O)(=O)N(CC(O)C(Cc2ccccc2)NC(=O)OC2COC3OCCC23)OC2CCCC2)cc1` [Example 171, (3R,3aS,6aR)hexahydrofuro[2,3-b]furan-3-yl N-(1S,2R)-3-[[(4-aminophenyl)sulfonyl](cyclopentyloxy)amino]-1-benzyl-2-hydroxypropyl carbamate], the pKi on HIV-1 protease is over 9.00. Further, in the assay with HIV-1 (strain IIIB), the pIC50 was at least 7.00.
Taken in the same sequence, the figures for `NC(=O)c1cccc(S(=O)(=O)N(C[C@@H](O)[C@H](Cc2ccccc2)NC(=O)O[C@H]2CO[C@H]3OCC[C@H]32)OC2CCCC2)c1` [Example 173, (3R,3aS,6aR)hexahydrofuro[2,3-b]furan-3-yl N-(1S,2R)-3[[(3-carbamoylphenyl)sulfonyl](cyclopentyloxy)amino]-1-benzyl-2-hydroxypropyl carbamate] were over 9.00 and at least 7.00.
